Experimental data as given in patent US6737383B1, “Herbicidal oxadiazolidines” (priority 1999, dated 2004).

Experiments:
[1] = test system: corn; assay: Test B pre/postemergence corn; type: in vivo, Zea mays; settings: for Corn plant response rating: scale of 0 to 10 where 0 is no effect and 10 is complete control
How it was run: (§1)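 Test chemicals in a non-phytotoxic solvent mixture with surfactant were sprayed preemergence onto planted seeds and postemergence onto plants 2 to 18 cm tall (1- to 4-leaf stage). After twelve to sixteen days in a greenhouse, injury was visually rated against untreated controls from 0 (no effect) to 10 (complete control).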

[2] = test system: blackgrass; assay: Test B pre/postemergence blackgrass; type: in vivo, Alopecurus myosuroides; settings: for Blackgrass plant response rating: scale of 0 to 10 where 0 is no effect and 10 is complete control
How it was run: as §1

[3] = test system: wild oat; assay: Test B pre/postemergence wild oat; type: in vivo, Avena fatua; settings: for Wild oats plant response rating: scale of 0 to 10 where 0 is no effect and 10 is complete control
How it was run: as §1

[4] = test system: bedstraw; assay: Test B pre/postemergence bedstraw; type: in vivo, Galium aparine; settings: for Bedstraw plant response rating: scale of 0 to 10 where 0 is no effect and 10 is complete control
How it was run: as §1

[5] = test system: purple nutsedge; assay: Test B pre/postemergence purple nutsedge; type: in vivo, Cyperus rotundus; settings: for Nutsedge plant response rating: scale of 0 to 10 where 0 is no effect and 10 is complete control
How it was run: as §1

[6] = test system: velvetleaf; assay: Test B pre/postemergence velvetleaf; type: in vivo, Abutilon theophrasti; settings: for Velvetleaf plant response rating: scale of 0 to 10 where 0 is no effect and 10 is complete control
How it was run: as §1

[7] = test system: morningglory; assay: Test B pre/postemergence morningglory; type: in vivo, Ipomoea hederacea; settings: for Morningglory plant response rating: scale of 0 to 10 where 0 is no effect and 10 is complete control
How it was run: as §1

[8] = test system: cocklebur; assay: Test B pre/postemergence cocklebur; type: in vivo, Xanthium strumarium; settings: for Cocklebur plant response rating: scale of 0 to 10 where 0 is no effect and 10 is complete control
How it was run: as §1

[9] = test system: wheat; assay: Test B pre/postemergence wheat; type: in vivo, Triticum aestivum; settings: for Wheat plant response rating: scale of 0 to 10 where 0 is no effect and 10 is complete control
How it was run: as §1

[10] = test system: crabgrass; assay: Test B pre/postemergence crabgrass; type: in vivo, Digitaria sanguinalis; settings: for Crabgrass plant response rating: scale of 0 to 10 where 0 is no effect and 10 is complete control
How it was run: as §1

[11] = test system: surinam grass; assay: Test B pre/postemergence surinam grass; type: in vivo, Brachiaria decumbens; settings: for B. signalgrass plant response rating: scale of 0 to 10 where 0 is no effect and 10 is complete control
How it was run: as §1

[12] = test system: pigweed; assay: Test B pre/postemergence pigweed; type: in vivo, Amaranthus retroflexus; settings: for Redroot pigweed plant response rating: scale of 0 to 10 where 0 is no effect and 10 is complete control
How it was run: as §1

[13] = test system: giant foxtail; assay: Test B pre/postemergence giant foxtail; type: in vivo, Setaria faberii; settings: for Giant foxtail plant response rating: scale of 0 to 10 where 0 is no effect and 10 is complete control
How it was run: as §1

[14] = test system: sugar beet; assay: Test B pre/postemergence sugar beet; type: in vivo, Beta vulgaris; settings: for Sugarbeets plant response rating: scale of 0 to 10 where 0 is no effect and 10 is complete control
How it was run: as §1

[15] = test system: rape; assay: Test B pre/postemergence rape; type: in vivo, Brassica napus; settings: for Rape plant response rating: scale of 0 to 10 where 0 is no effect and 10 is complete control
How it was run: as §1

[16] = test system: soybean; assay: Test B pre/postemergence soybean; type: in vivo, Glycine max; settings: for Soybean plant response rating: scale of 0 to 10 where 0 is no effect and 10 is complete control
How it was run: as §1

[17] = Postemergence, Rate 125 g/ha, scale 0 to 10, 0 is no effect, 10 is complete control
[18] = Postemergence, Rate 250 g/ha, scale 0 to 10, 0 is no effect, 10 is complete control
[19] = Preemergence, Rate 62 g/ha, scale 0 to 10 (0 no effect, 10 complete control)
[20] = Rate 500 g/ha, Postemergence, scale 0 to 10, 0 no effect, 10 complete control

CC(C)N(C(=O)n1oc(=O)n(C2(C)CC2)c1=O)c1ccc(Cl)cc1 [Compound 361]
6: Corn plant response rating ([1]; Preemergence, Rate 500 g/ha) | Plant response rating, Wild oats [3, 18] | Plant response rating, Wild oats [3, 20] | Wheat plant response rating ([9]; Preemergence, Rate 500 g/ha) | B. signalgrass plant response rating ([11]; Preemergence, Rate 500 g/ha) | Plant response rating, Redroot pigweed [12, 18] | Sugarbeets plant response rating ([14]; Preemergence, Rate 250 g/ha) | Sugarbeets plant response rating ([14]; Preemergence, Rate 500 g/ha) | Plant response rating, Sugarbeets [14, 20] | Rape plant response rating ([15]; Preemergence, Rate 500 g/ha)
4: Velvetleaf plant response rating ([6]; Preemergence, Rate 250 g/ha) | B. signalgrass plant response rating (0 to 10 scale, 0 is no effect, 10 is complete control) ([11]; Preemergence, Rate 125 g/ha) | B. signalgrass plant response rating ([11]; Preemergence, Rate 250 g/ha) | Plant response rating, B. signalgrass [11, 20] | Plant response rating, Giant foxtail [13, 17] | Plant response rating, Rape [15, 19] | Plant response rating, Rape [15, 20] | Plant response rating, Soybean [16, 17]
0: Plant response rating, Corn [1, 17] | Plant response rating, Corn [1, 18] | Plant response rating, Corn [1, 19] | Corn plant response rating (0 to 10 scale) ([1]; Preemergence, Rate 125 g/ha) | Corn plant response rating ([1]; Rate 62 g/ha, Postemergence) | Plant response rating, Corn [1, 20] | Wild oats plant response rating ([3]; Rate 62 g/ha, Postemergence) | Plant response rating, Bedstraw [4, 19] | Bedstraw plant response rating (0 to 10 scale) ([4]; Preemergence, Rate 125 g/ha) | Bedstraw plant response rating ([4]; Preemergence, Rate 250 g/ha) | Plant response rating, Nutsedge [5, 17] | Plant response rating, Nutsedge [5, 18] | Plant response rating, Nutsedge [5, 19] | Nutsedge plant response rating (0 to 10 scale) ([5]; Preemergence, Rate 125 g/ha) | Nutsedge plant response rating ([5]; Preemergence, Rate 250 g/ha) | Nutsedge plant response rating ([5]; Preemergence, Rate 500 g/ha) | Nutsedge plant response rating ([5]; Rate 62 g/ha, Postemergence) | Plant response rating, Nutsedge [5, 20] | Plant response rating, Velvetleaf [6, 17] | Plant response rating, Velvetleaf [6, 18] | Plant response rating, Velvetleaf [6, 19] | Velvetleaf plant response rating (0 to 10 scale) ([6]; Preemergence, Rate 125 g/ha) | Velvetleaf plant response rating ([6]; Rate 62 g/ha, Postemergence) | Plant response rating, Morningglory [7, 19] | Morningglory plant response rating (0 to 10 scale) ([7]; Preemergence, Rate 125 g/ha) | Morningglory plant response rating ([7]; Preemergence, Rate 250 g/ha) | Morningglory plant response rating ([7]; Preemergence, Rate 500 g/ha) | Plant response rating, Cocklebur [8, 17] | Plant response rating, Cocklebur [8, 18] | Plant response rating, Cocklebur [8, 19] | Cocklebur plant response rating (0 to 10 scale) ([8]; Preemergence, Rate 125 g/ha) | Cocklebur plant response rating ([8]; Preemergence, Rate 250 g/ha) | Cocklebur plant response rating ([8]; Preemergence, Rate 500 g/ha) | Cocklebur plant response rating ([8]; Rate 62 g/ha, Postemergence) | Plant response rating, Wheat [9, 17] | Plant response rating, Wheat [9, 18] | Plant response rating, Wheat [9, 19] | Wheat plant response rating (0 to 10 scale) ([9]; Preemergence, Rate 125 g/ha) | Wheat plant response rating ([9]; Rate 62 g/ha, Postemergence) | Crabgrass plant response rating ([10]; Rate 62 g/ha, Postemergence) | Plant response rating, B. signalgrass [11, 17] | B. signalgrass plant response rating ([11]; Rate 62 g/ha, Postemergence) | Plant response rating, Sugarbeets [14, 19] | Plant response rating, Soybean [16, 19] | Soybean plant response rating (0 to 10 scale) ([16]; Preemergence, Rate 125 g/ha) | Soybean plant response rating ([16]; Preemergence, Rate 250 g/ha)
5: Blackgrass plant response rating ([2]; Rate 62 g/ha, Postemergence) | Velvetleaf plant response rating ([6]; Preemergence, Rate 500 g/ha) | Plant response rating, Crabgrass [10, 20] | Plant response rating, Redroot pigweed [12, 17] | Plant response rating, Giant foxtail [13, 18] | Plant response rating, Giant foxtail [13, 20] | Plant response rating, Sugarbeets [14, 17] | Plant response rating, Sugarbeets [14, 18] | Rape plant response rating (0 to 10 scale) ([15]; Preemergence, Rate 125 g/ha) | Rape plant response rating ([15]; Preemergence, Rate 250 g/ha) | Plant response rating, Soybean [16, 18] | Plant response rating, Soybean [16, 20]
7: Plant response rating, Blackgrass [2, 17] | Plant response rating, Wild oats [3, 19] | Plant response rating, Bedstraw [4, 17] | Bedstraw plant response rating ([4]; Rate 62 g/ha, Postemergence) | Plant response rating, Morningglory [7, 18] | Crabgrass plant response rating (0 to 10 scale) ([10]; Preemergence, Rate 125 g/ha) | Crabgrass plant response rating ([10]; Preemergence, Rate 250 g/ha) | Redroot pigweed plant response rating (0 to 10 scale) ([12]; Preemergence, Rate 125 g/ha) | Plant response rating, Redroot pigweed [12, 20] | Plant response rating, Giant foxtail [13, 19]
1: Corn plant response rating ([1]; Preemergence, Rate 250 g/ha) | Morningglory plant response rating ([7]; Rate 62 g/ha, Postemergence) | Plant response rating, Redroot pigweed [12, 19] | Giant foxtail plant response rating ([13]; Rate 62 g/ha, Postemergence) | Soybean plant response rating ([16]; Preemergence, Rate 500 g/ha)
10: Blackgrass plant response rating ([2]; Preemergence, Rate 250 g/ha) | Blackgrass plant response rating ([2]; Preemergence, Rate 500 g/ha) | Wild oats plant response rating ([3]; Preemergence, Rate 500 g/ha) | Redroot pigweed plant response rating ([12]; Preemergence, Rate 500 g/ha) | Giant foxtail plant response rating ([13]; Preemergence, Rate 250 g/ha) | Giant foxtail plant response rating ([13]; Preemergence, Rate 500 g/ha)
3: Plant response rating, Blackgrass [2, 19] | Plant response rating, Velvetleaf [6, 20] | Plant response rating, B. signalgrass [11, 18] | Plant response rating, B. signalgrass [11, 19] | Redroot pigweed plant response rating ([12]; Rate 62 g/ha, Postemergence) | Plant response rating, Rape [15, 17] | Plant response rating, Rape [15, 18]
2: Plant response rating, Wild oats [3, 17] | Bedstraw plant response rating ([4]; Preemergence, Rate 500 g/ha) | Plant response rating, Morningglory [7, 17] | Plant response rating, Cocklebur [8, 20] | Wheat plant response rating ([9]; Preemergence, Rate 250 g/ha) | Plant response rating, Wheat [9, 20] | Plant response rating, Crabgrass [10, 17] | Plant response rating, Crabgrass [10, 18] | Plant response rating, Crabgrass [10, 19] | Sugarbeets plant response rating (0 to 10 scale) ([14]; Preemergence, Rate 125 g/ha) | Sugarbeets plant response rating ([14]; Rate 62 g/ha, Postemergence) | Rape plant response rating ([15]; Rate 62 g/ha, Postemergence) | Soybean plant response rating ([16]; Rate 62 g/ha, Postemergence)
9: Crabgrass plant response rating ([10]; Preemergence, Rate 500 g/ha) | Giant foxtail plant response rating (0 to 10 scale) ([13]; Preemergence, Rate 125 g/ha)
8: Plant response rating, Blackgrass [2, 18] | Blackgrass plant response rating (0 to 10 scale) ([2]; Preemergence, Rate 125 g/ha) | Plant response rating, Blackgrass [2, 20] | Wild oats plant response rating (0 to 10 scale) ([3]; Preemergence, Rate 125 g/ha) | Wild oats plant response rating ([3]; Preemergence, Rate 250 g/ha) | Plant response rating, Bedstraw [4, 18] | Plant response rating, Bedstraw [4, 20] | Redroot pigweed plant response rating ([12]; Preemergence, Rate 250 g/ha)
